Test results as given in patent US7074774B2, “Use of N-acetyl-D-glucosamine in the manufacture of pharmaceutical useful for treating cardio-cerebrovascular anoxemia” (Third Military Medical University Chinese People's …, priority 2001, dated 2006).

Legend:
[1] = in vivo
Excerpt: N-acetyl-D-glucosanime can raise the resistance to oxygen deficiency of the small mice. • III. Toxicological test of the compound of formula (I), including: • 1. acute toxicity test: including tests of administrating medicine by oral, intravenous injection and maximum limit amount for administration; • 2. Ames test; • 3. micronucleus test of bone marrow cell of mouse; • 4. abnormal sexual test for the sperm of mouse; • 5. abnormal aberrance test for the chromosin of mouse's testis; • 6. chronic lethal test; • 7. subchronic toxicity (feed for 90 days) test; • 8. traditional aberrance-inducing test;

[2] = system: mice in oxygen deficiency at normal pressure; experiment: Resistance to oxygen-deficiency: model of oxygen deficiency at normal pressure; format: in vivo, mice of Kunming species
Experimental: Experimental research of the resistance to oxygen-deficiency of N-acetyl-Dglucosanime 1. Model of Oxygen Deficiency at Normal Pressure:
The mice were put into a sealed glass desiccator with a volumn of 200 ml and charged with 20 g of sodium lime to observe the survival time.
The mice of Kunming species, provided by the 3rd Military Medical University of P. R. China
Two groups had 24 mice in total, in the experimental group, two weeks before experiment, administrating N-acetyl-D-glucosanime by stomach infusion with a dosage of 0.05 g/kg, in the control group, they were normally fed.

[3] = system: rat with cerebral ischemia and Re-Infusion; experiment: Protecting effect in rat with cerebral ischemia and re-infusion (four arteries ligation model); format: in vivo, Wistar rat
Excerpt: The following experimental example is used to illustrate the effect of resisting cardiac and cerebral ischemia as well as oxygen-deficiency, and the low toxicity of the compound of the present invention (the compound of formula (I)). • I. The protecting effect of N-acetyl-D-glucosamine in rat with cerebral ischemia and Re-Infusion • 1. Animal: Wistar rat provided by the 3rd Military Medical University P.R. China. Half of them are male, the other are female. • 2. Method for making model: the model is made by four arteries ligation method to cause the rat to be cerebral ischemia, in which for each rat, the vertebra artery in the vertebra foramen of the second cervical vertebra is blocked by hot coagulation with electric coagulator, then separate the two common carotid artery in the front of it, after that, remain the surgical thread jacket, sewing up. Next day, after the animal is recovered from anesthesia, open the sewing thread in the front of the animal, clamp the two common carotid artery with artery clip, it needs 20 min. in total. […] Grouping: the animals are divided into four groups (eight animals in each group) […]
Astragalus Group: that is, before the animal is treated, administrating Astragalus injection solution by abdominal injection.
Astragalus+N-acetyl-D-glucosanime Group: that is, 30 min before clamping, administrating a mixture injection solution of 0.25 g/kg of N-acetyl-D-glucosanime and 2 g/kg of Astragalus by abdominal injection.
The control Group: not administrating any medicament, but injecting physiological salt solution with the same volume.
The animals in each group are all fed in standard. In the process of operation, please pay attention to asepsis.
Abnormal ratio of the water content in the brain (by dry-wet weight method):
Scoring the symptoms of nerve behavior • 0 score: no symptom of nerve defect, moving normally • 1 score: cannot extend the front claw at the opposite side • 2 score: when walking, the body rotates toward the hemiplegia side • 3 score: the body collapse down toward the hemiplegia side • 4 score: not capable of walking spontaneously, losing consciousness 5.

In the case of `CC(=O)N[C@H]1C(O)O[C@H](CO)[C@@H](O)[C@@H]1O` (stereo partly drawn) [N-acetyl-D-glucosanime, N-acetyl-D-glucosamine], the “acute test dosage relative to the injection dosage for human being” value [1] is reported as 300 times, the “dosage taken at which acute toxicosis reaction had not appeared” value [1] is reported as “more than 2 g/kg” and the “maximum dosage with no toxicosis reaction” value ([1]; 4 weeks) is reported as 1 g/kg. The Average survival period ([2]; 0.05 g/kg by stomach infusion, two weeks before experiment, sealed 200 ml desiccator with 20 g sodium lime, versus control group) was “much longer than that of the control group”, the “resistance to oxygen deficiency of the small mice” value ([2]; conclusion) was “can raise” and the “cerebral edema degree caused by cerebral ischemia and re-infusion” value ([3]; conclusion, dosage 0.025 g/kg) was “decreased obviously”. For the same compound, the corresponding nerve symptoms ([3]; conclusion, dosage 0.025 g/kg) was “released”, the survival rate ([3]; conclusion, dosage 0.025 g/kg) was “raised obviously” and the “Water content of brain” value ([3]; dry-wet weight method, medicament before clamping (N-acetyl-D-glucosanime 0.25 g/kg, Astragalus 2 g/kg in mixture), control 70.84%) was 66.2%. For the same compound, the Survival ([3]; four arteries ligation, 20 min clamping, medicament before clamping (N-acetyl-D-glucosanime 0.25 g/kg, Astragalus 2 g/kg in mixture), control 62.5%) was 87.5% and the “Abnormal ratio (symptoms of nerve behavior)” value ([3]; medicament before clamping (N-acetyl-D-glucosanime 0.25 g/kg, Astragalus 2 g/kg in mixture), control 75%) was 50%.
